Experimental data as given in patent US7973056B2, “Triazole derivative or salt thereof” (Fujifilm Finechemicals Co., Ltd, priority 2008, dated 2011).
Values after ≈ are worked out from the molar mass of the structure shown.

Legend:
[1] = tested on: Candida albicans TIMM 1623; assay: Antifungal activity test (in vivo), mouse systemic infection model; conditions: for T/C (%): survival time of administration group / control group x100
Method: With respect to compounds I-1, I-3 and I-6 obtained in Examples 1, 3 and 6 respectively, therapeutic effects at the time of subcutaneous administration of compounds I-1, I-3 and I-6 on a mouse systemic infection model by Candida albicans TIMM 1623 were tested.
The test was carried out using 5 animals for each of the drug administration groups and Negative control group (sterile physiological saline administration group).
Each of compounds I-1, I-3 and I-6 was dissolved in and diluted with dimethyl sulfoxide (DMSO; Wako Pure Chemical Industries, Ltd.) and then prepared into a predetermined concentration by diluting with sterile physiological saline.
As the control experiment, Fluconazole (FLCZ, Flanos intravenous drip solution 100 mg; TOYAMA CHEMICAL CO, LTD.) diluted to a predetermined concentration with sterile physiological saline was used.
On the next day of the receipt of animals, body weights of mice were measured and CP (crude protein) was intraperitoneally administered at a dose of 200 mg/kg based on the individual body weight, and then they were reared for 3 days.
Cells of C. albicans TIMM 1623 cultured overnight at 35° C. on SDA (Sabouraud dextrose agar; Eiken Chemical Co., Ltd.) plate medium were suspended in sterile physiological saline and used as the Stock solution, and a portion thereof was diluted with 10% formalin (Wako Pure Chemical Industries, Ltd.). The number of cells in the diluted liquid was counted under a biological microscope using a hemocytometer, and then an inoculum was prepared by diluting the stock solution with sterile physiological saline (about 1.5×10^5 cells/ml). By inoculating 0.2 ml of this cell suspension through caudal vein, infection was induced. In this connection, the number of viable cells in the inoculum was verified by spreading the cell suspension optionally diluted with sterile physiological saline on an SDA plate medium and then culturing at 35° C. Each of the substances to be tested, control substance or sterile physiological saline was subcutaneously administered after 2 hours of the infection and for 3 days starting on the next day of infection once a day, a total of 4 times. After measuring individual body weight on the next day of infection, CP was again administered intraperitoneally at a dose of 100 mg/kg. The number of survived mice was observed and recorded for 14 days starting on the next day of infection.
The results were shown in Table 3 below and FIGS. 1A to 1D. In the table, the administration dose of the compounds of the present invention and the comparative compound represents a mg amount per 1 kg of a mouse weight (mg/kg).
Significant deference was tested, by 5% for both sides of the levels of significance, in accordance with the Kaplan-Meier method Logrank test (comparison of multiple groups), on the survival time distribution of each of the substances to be tested and control substance administration groups and sterile physiological saline administration group. SAS release 8.2 (SAS Institute Japan) was used in the Kaplan-Meier method Logrank test. (T/C(%)=[survival time of administration group (integrated value)/survival time of control group (integrated value)]×100)

[2] = tested on: Candida albicans ATCC 44858; assay: Antifungal activity test (in vitro), MIC; assay type: cell-based; conditions: ATCC44858
[3] = tested on: Trichophyton rubrum ATCC 10218; assay: Antifungal activity test (in vitro), MIC; assay type: cell-based; conditions: ATCC10218
Method: Minimum inhibitory concentration (MIC) of each of the compounds obtained in Examples 1 to 12 was measured for respective fungi at MOS Pharm Service, by the methods described in Antimicrobial Agents and Chemotherapy, vol. 3, pp. 40-48 (1973), Antimicrobial Agents and Chemotherapy, vol. 33, pp. 215-222 (1989) and Antimicrobial Agents and Chemotherapy, vol. 38, pp. 2362-2368 (1994). The measuring conditions are shown in the following. In this case, Voriconazol was used as a comparative compound. Trichophyton rubrum ATCC 10218; Cultured at 28° C. for 3 days using fluid Sabouraud medium, and this was used as a cell suspension. Each of the compounds of the invention was adjusted to a concentration of 1% by weight using dimethyl sulfoxide (DMSO) and a medium similar to the respective medium used in the above-mentioned fungal culture, having a final concentration of from 0.001 to 100 μg/ml, was prepared. Each of the inoculation cell suspensions prepared by the above-mentioned methods was inoculated onto this agar plate. […] In this connection, Voriconazol was used as the comparative compound C-1.

`C[C@@H](N1CC=C(c2ccccn2)CC1)[C@](O)(Cn1cncn1)c1ccc(F)cc1F` [I-3, (2R,3R)-2-(2,4-difluorophenyl)-3-(3′,6′-dihydro-2,4′-bipyridin-1′(2′H)-yl)-1-(1,2,4-triazol-1-yl)butan-2-ol] showed a survival rate ([1]; 0.1 mg/kg s.c., day 0) of 100, a survival rate ([1]; 0.1 mg/kg s.c., day 1) of 100 and a survival rate ([1]; 0.1 mg/kg s.c., day 2) of 100. It also gave a survival rate ([1]; 0.1 mg/kg s.c., day 3) of 60, a survival rate ([1]; 0.1 mg/kg s.c., day 4) of 60 and a survival rate ([1]; 0.1 mg/kg s.c., day 5) of 60. For the same compound, the survival rate ([1]; 0.1 mg/kg s.c., day 6) was 60, the survival rate ([1]; 0.1 mg/kg s.c., day 7) was 40 and the survival rate ([1]; 0.1 mg/kg s.c., day 8) was 40. For the same compound, the survival rate ([1]; 0.1 mg/kg s.c., day 9) was 40, the survival rate ([1]; 0.1 mg/kg s.c., day 10) was 40 and the survival rate ([1]; 0.1 mg/kg s.c., day 11) was 40. The survival rate ([1]; 0.1 mg/kg s.c., day 12) was 40, the survival rate ([1]; 0.1 mg/kg s.c., day 13) was 40 and the survival rate ([1]; 0.1 mg/kg s.c., day 14) was 40. For the same compound, the “T/C (%)” value ([1]; 0.1 mg/kg s.c.) was 139%, the survival rate ([1]; 1 mg/kg s.c., day 0) was 100 and the survival rate ([1]; 1 mg/kg s.c., day 1) was 100. It also gave a survival rate ([1]; 1 mg/kg s.c., day 2) of 100, a survival rate ([1]; 1 mg/kg s.c., day 3) of 80 and a survival rate ([1]; 1 mg/kg s.c., day 4) of 80. For the same compound, the survival rate ([1]; 1 mg/kg s.c., day 5) was 60, the survival rate ([1]; 1 mg/kg s.c., day 6) was 40 and the survival rate ([1]; 1 mg/kg s.c., day 7) was 40. It also gave a survival rate ([1]; 1 mg/kg s.c., day 8) of 40, a survival rate ([1]; 1 mg/kg s.c., day 9) of 40 and a survival rate ([1]; 1 mg/kg s.c., day 10) of 40. It also gave a survival rate ([1]; 1 mg/kg s.c., day 11) of 40, a survival rate ([1]; 1 mg/kg s.c., day 12) of 40 and a survival rate ([1]; 1 mg/kg s.c., day 13) of 40. The survival rate ([1]; 1 mg/kg s.c., day 14) was 40, the “T/C (%)” value ([1]; 1 mg/kg s.c.) was 142% and the survival rate ([1]; 10 mg/kg s.c., day 0) was 100. It also gave a survival rate ([1]; 10 mg/kg s.c., day 1) of 100, a survival rate ([1]; 10 mg/kg s.c., day 2) of 100 and a survival rate ([1]; 10 mg/kg s.c., day 3) of 60. For the same compound, the survival rate ([1]; 10 mg/kg s.c., day 4) was 60, the survival rate ([1]; 10 mg/kg s.c., day 5) was 60 and the survival rate ([1]; 10 mg/kg s.c., day 6) was 60. For the same compound, the survival rate ([1]; 10 mg/kg s.c., day 7) was 40, the survival rate ([1]; 10 mg/kg s.c., day 8) was 20 and the survival rate ([1]; 10 mg/kg s.c., day 9) was 20. For the same compound, the survival rate ([1]; 10 mg/kg s.c., day 10) was 20, the survival rate ([1]; 10 mg/kg s.c., day 11) was 20 and the survival rate ([1]; 10 mg/kg s.c., day 12) was 20. For the same compound, the survival rate ([1]; 10 mg/kg s.c., day 13) was 20, the survival rate ([1]; 10 mg/kg s.c., day 14) was 20 and the “T/C (%)” value ([1]; 10 mg/kg s.c.) was 116%. The MIC [2] was 1 µg/mL (≈ 2.43 µM) and the MIC [3] was 0.3 µg/mL (≈ 0.729 µM).
